From patent publication US20230302104A1, “TREATMENT AND/OR PREVENTION OF A DISEASE OR A SYNDROME RELATED TO A VIRUS INFECTION” (priority 2020, published 2023)

Test system: SARS-CoV pseudovirus entry in ACE2 overexpressing A549 human lung alveolar basal epithelium cells
Type: cell-based

rhAAT
SARS-CoV pseudovirus entry: inhibits viral entry of several viruses
